Data set [1] relates to Plasmodium falciparum drug-sensitive NF54. Briefly: Antimalarial assay, [3H]hypoxanthine incorporation. Format: cell-based. The note with it: Plasmodium falciparum. Here is the method:
(§1) Due to the nature of the study, some decomposition samples w ere only tested once and thus, for some formal standard error, […]
For the final purified compounds, replicates were measured and standard deviation was calculated at least from two replicates.
1.2 General Procedure for Antimalarial Assay
Plasmodium falciparum drug-sensitive NF54 (airport strain from The Netherlands, provided by F. Hoffmann-La Roche Ltd) was cultivated in a variation of the medium consisting of RPMI 1640 supplemented with 0.5% ALBUMAX® II, 25 mM Hepes, 25 mM NaHCO3 (pH 7.3), 0.36 mM hypoxanthine, and 100 μg/mL neomycin, as previously described.[4,5] Human erythrocytes served as host cells.
Cultures were maintained in an atmosphere of 3% O2, 4% CO2, and 93% N2 in humidified modular chambers at 37 °C. Compounds were dissolved in MeOH (10 mM), diluted in hypoxanthine-free culture medium and titrated in duplicates over a 64-fold range in 96 well plates. Infected erythrocytes (1.25% final hematocrit and 0.3% final parasitemia) were added into the wells. After 48 h incubation, 0.25 μCi of [3H]hypoxanthine was added per well and plates were incubated for an additional 24 h. Parasites were harvested onto glass-fiber filters and radioactivity was counted using a Betaplate liquid scintillation counter (Wallac, Zurich). Chloroquine […]
The results were recorded and expressed as a percentage of the untreated controls. Fifty percent inhibitory concentrations (IC50) were estimated by linear interpolation.[6] […]

Data set [2] has as its target T1, EcIspE (Escherichia coli, UniProt P62615).
T1 construct: made in house
Briefly: EcIspE enzymatic assay (coupled to PK/LDH). To be noted: fractions of second purification. Format: biochemical.
From the text: (§2) Another approach to address this issue is to perform the IspE assay with one or several orthologues of PfIspE. […] The IspE assay setup was identical for both Pf and EcIspE orthologs except for the target enzyme used. One of the setup requirements was that the enzymatic activity of the auxiliary enzymes PK/LDH exceeded the activity of the target enzyme IspE not less than a factor of ten.[10] We investigated, if the inhibition of the auxiliary enzymes may substantially influence the IC50 values obtained from the coupled IspE assay.
(§3) 1.1 General Procedure for Enzymatic Assay
(§4) The cloning, expression and purification of Plasmodium falciparum[1] and Escherichia coli[2,3] and their subsequent assays followed the previously reported procedures .[1] In some specified cases, the tested compound was dissolved in methanol or acetonitrile for the assay .
as §1
(§5) For the final purified compounds, replicates were measured and standard deviation was calculated at least from two replicates. […]
(§6) 2.) Decomposition Study Procedure
(§7) All reagents and solvents were of commercial quality and used without further purification.
Low resolution mass analytics and purity controls were carried out using an Ultimate 3000-ISQ liquid-chromatography mass spectrometry (LCMS) system (Thermo Fisher […]

For data set [3], the target named is PfIspE (Plasmodium falciparum, UniProt Q8I470). Briefly: PfIspE enzymatic assay (coupled to PK/LDH, NADH oxidation at 340 nm). Format: biochemical. How it is done: (§8) Firstly, we performed a temperature‐dependent decomposition study of compound 1 at 10 mM concentration in DMSO at room temperature (RT), +4 °C and −20 °C (SI, Section 2.3). […] Besides visual inspection of the colour changes of the test sample (see Table 2), the decomposition was monitored by HRMS and NMR spectroscopy. […] Furthermore, all three samples were tested for their inhibitory activity against PfIspE after the incubation period. […] In the IspE assay, the activity of the target enzyme is coupled to the oxidation of NADH (which can be followed spectrophotometrically at 340 nm) via a cascade of the auxiliary enzymes pyruvate kinase and lactate dehydrogenase (PK/LDH).[10] […] Three samples of compound 1 were tested in PK/LDH assay (Table 2).
Chain of PfIspE (Q8I470 entry or part of it): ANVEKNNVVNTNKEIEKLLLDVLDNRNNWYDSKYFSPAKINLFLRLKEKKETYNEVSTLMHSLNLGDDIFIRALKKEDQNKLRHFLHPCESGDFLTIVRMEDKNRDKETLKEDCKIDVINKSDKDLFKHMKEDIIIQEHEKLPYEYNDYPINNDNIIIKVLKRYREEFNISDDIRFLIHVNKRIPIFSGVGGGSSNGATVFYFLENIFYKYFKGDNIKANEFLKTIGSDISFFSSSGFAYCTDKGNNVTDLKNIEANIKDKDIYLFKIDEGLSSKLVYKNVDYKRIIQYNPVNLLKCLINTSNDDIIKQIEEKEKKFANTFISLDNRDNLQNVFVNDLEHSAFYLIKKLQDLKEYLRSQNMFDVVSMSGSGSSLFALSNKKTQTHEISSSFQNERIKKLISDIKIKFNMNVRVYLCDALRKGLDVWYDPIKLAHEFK
as §2, §3, §4, §1, §5, §6, §7

Data set [4] can be described thus: Decomposition study of stock solutions (HRMS, NMR). Format: physicochemical. To be noted: 10 mM DMSO stock at RT, after one day. How it is done:
Firstly, we performed a temperature‐dependent decomposition study of compound 1 at 10 mM concentration in DMSO at room temperature (RT), +4 °C and −20 °C (SI, Section 2.3). After seven days, 64 % of the sample stored at RT had decomposed (SI, Table S1). Besides visual inspection of the colour changes of the test sample (see Table 2), the decomposition was monitored by HRMS and NMR spectroscopy. […] Furthermore, all three samples were tested for their inhibitory activity against PfIspE after the incubation period. […] This fact correlated with the degree of chemical transformation of compound 1 (Table S1). In the IspE assay, the activity of the target enzyme is coupled to the oxidation of NADH (which can be followed spectrophotometrically at 340 nm) via a cascade of the auxiliary enzymes pyruvate kinase and lactate dehydrogenase (PK/LDH).[10] Therefore, we next confirmed, whether the effects observed in the IspE assay are due to inhibition of the target enzyme or of the auxiliary enzymes. Three samples of compound 1 were tested in PK/LDH assay (Table 2).
Secondly, we analysed if spontaneous chemical transformation of compound 1 may depend on the solvent used for the preparation of its stock solutions. We incubated 10 mM stock preparations of compound 1 in DMSO, acetonitrile (ACN) and methanol (MeOH) at RT. Aliquots were taken during 16 days of incubation and tested against the enzyme PfIspE (Table 3). […] For further decomposition incubation of compound 1, only DMSO was used as solvent.
2.3 Temperature-Dependent Study
Compound 1 was dissolved in DMSO to afford 10 mM stock solution, in the scale of 3.65 mg in 1 mL. Three aliquots were prepared and one each was stored inside a light -protecting box at different temperatures: room temperature (RT), +4 °C and –20 °C. Samples were only taken to RT for the minimum time required for sampling. Samples were further d iluted with acetonitrile to 10 µM (1:1000) for HRMS analysis. For calibration, a fresh stock solution of the compound 1 was prepared shortly before the analysis. The concentration range used for the calibration was from 10 µM to 20 nM, including 10 samples with 1:1 dilutions starting from the highest concentration (Appendix I). In all of the calibration points and samples, diphenhydramine ( m/z: 256.16907 [M+H]+) was included as an internal standard at the concentration of 500 nM. The results were analysed using Thermo Xcalibur Quan Browser. Similarly, three NMR samples of compound 1 were prepared in DMSO-d6 and each stored at different temperatures; RT, +4 °C and –20 °C, (Figure S8).
Table S1. Summary of the decomposition of compound 1 at different temperatures with the corresponding enzymatic activities measured after three months.
The Percentage of Compound 1 Left After Degradation after 3 months of decomposition[b] Temperature Day 7 1 month 2 months PfIspE IC50 EcIspE IC50 PK/LDH IC50 […]
[a] [b] Errors given as formal standard error. n.d.: not determined, PK/LDH: pyruvate kinase and lactate dehydrogenase, Pf: Plasmodium falciparum, Ec: Escherichia coli.
Figure S7. The HRMS recorded for the samples submitted to the enzyme assay after 3 months of decomposition with the corresponding colour differences. […]
2.4 Solvent-Dependent Study
As in the Section 2.3, stock solutions of compound 1 were prepared in DMSO, ACN and MeOH and stored at RT for 16 days in a box protected from light . Samples were collected during this time and the enzymatic activity was analysed for them as in main text, Table […]
compound 1 for ACN or MeOH was detectible (Figures S11–12). Similarly, the old samples of compound 1 used for enzyme and cell assays were analysed with HRMS (Figure S13). Additionally, NMR sample in MeOH was prepared and measured over time while stored at RT. As a follow-up experiment, the stability of compound 1 was determined for its 10 mM stock solution in Tris-HCl (pH 7.6) with and without 5% DMSO and Cyrene™ with HRMS (Figure S16–18). […]

Data set [5] deals with PK/LDH (pyruvate kinase and lactate dehydrogenase). In words: PK/LDH auxiliary enzyme assay. The class given is biochemical. The note with it: SFC-separated compound, dissolved in methanol shortly before the assay. How it is done: as §8, §3, §4, §1, §5, §6, §7
Low resolution mass analytics and purity controls were carried out using an Ultimate 3000-ISQ liquid-chromatography mass spectrometry (LCMS) system (Thermo Fisher Scientific, Dreieich, Germany) consisting of a Dionex UltiMate pump, an autosampler, DAD detector and an ESI quadrupole mass spectrometer. NMR spectra were recorded on a Bruker AV 500 or Ascend 700 (1H, 500 MHz or 700 MHz; 13C, 126 MHz or 175 MHz; 19F, 470 MHz) spectrometer. All spectra were measured in DMSO -d6, methanol-d4, acetone-d6 or acetonitrile-d3 to which reported

The mark [6] stands for this setting: fractions of second purification (DMSO, RT, five days), dissolved in ACN.
Setting [7] is: fractions of second purification (DMSO, RT, five days), dissolved in MeOH.

Each structure is given as a SMILES string. Where two headings read alike, the source gives them in different places.

T1 sequence (P62615 whole entry): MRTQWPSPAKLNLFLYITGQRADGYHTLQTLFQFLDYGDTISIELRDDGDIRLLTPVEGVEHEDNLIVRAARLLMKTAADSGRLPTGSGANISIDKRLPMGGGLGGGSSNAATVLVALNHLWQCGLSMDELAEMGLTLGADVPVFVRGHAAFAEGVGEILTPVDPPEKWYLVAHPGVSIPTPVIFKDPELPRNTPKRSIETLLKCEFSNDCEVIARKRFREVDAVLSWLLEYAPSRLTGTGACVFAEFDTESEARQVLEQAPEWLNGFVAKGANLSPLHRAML

As for `CCN(CC)CCCC(C)Nc1ccnc2cc(Cl)ccc12` (centres unmarked) [Chloroquine, reference compound], the IC50 in data set [1] (NF54, read-out: PfNF54 IC50) was 3.1 ± 0.8 ng/mL.
Consider `CCn1c(C)cc(-c2csc(Nc3ccccc3OC)n2)c1C` [Compound 2, 4-(1-Ethyl-2,5-dimethyl-1H-pyrrol-3-yl)-N-(2-methoxyphenyl)thiazol-2-amine], for which the IC50 in data set [2] (dissolved in ACN) is more than 1530 µM; in data set [2] (dissolved in MeOH), more than 1530 µM; in data set [3] (first screening, from a single measurement, not reproducible later), 191 µM; in data set [3] (setting [6]), more than 1530 µM; in data set [3] (setting [7]) it was more than 1530 µM; in data set [3] (fresh batch, freshly prepared stock solution), more than 500 µM. Further, the “decomposition in DMSO at RT: dimerisation (HRMS, in words)” value (“decomposition in DMSO at RT” for short) in data set [4] was “dimerising mainly into the predicted N−N dimers”.
As to `C=CCn1c(C)cc(-c2csc(Nc3ccccc3C(C)C)n2)c1C` [Compound 3, 4-(1-Allyl-2,5-dimethyl-1H-pyrrol-3-yl)-N-(2-isopropylphenyl)thiazol-2-amine], the IC50 in data set [2] (dissolved in ACN), in data set [2] (dissolved in MeOH), in data set [3] (setting [6]) and in data set [3] (setting [7]) was more than 1420 µM in each case. In data set [4], the “decomposition in DMSO at RT” value is “dimerising mainly into the predicted N−N dimers”.
`Cc1cc(-c2csc(Nc3ccccc3C(F)(F)F)n2)c(C)n1CC1CCCO1` (centres unmarked) [Compound 4, 4-(2,5-Dimethyl-1-((tetrahydrofuran-2-yl)methyl)-1H-pyrrol-3-yl)-N-(2-(trifluoromethyl)phenyl)thiazol-2-amine]: the IC50 in data set [2] (dissolved in ACN) is more than 1190 µM; in data set [2] (dissolved in MeOH), 292 µM; in data set [3] (fractions of first prep. HPLC purification (DMSO, RT, 2.5 weeks), dissolved in DMSO as 1 mg/mL), more than 1190 µM; in data set [3] (setting [6]) it was more than 1190 µM; in data set [3] (setting [7]) it was 112 µM. Also, the “decomposition in DMSO at RT” value in data set [4] is recorded as “no dimerisation”.
For `CCn1c(C)cc(-c2csc(N(c3ccccc3C(F)(F)F)N(C3=NC(=C4C=C(C)[N+](CC)=C4C)CS3)c3ccccc3C(F)(F)F)n2)c1C` [DP2], the IC50 in data set [5] came out at 37 ± 4 µM; in data set [1] (NF54, 72 h, SFC-separated compound, dissolved in methanol shortly before the assay, 72 hours, highest concentration tested 20 μM, read-out: PfNF54 IC50), 2.1 ± 0.2 µM; in data set [3] (SFC-separated compound, dissolved in methanol shortly before the assay) it was 59 ± 4 µM.
For `C[C@H]1[C@H](OC(=O)CCC(=O)O)O[C@@H]2O[C@@]3(C)CC[C@H]4[C@H](C)CC[C@@H]1[C@@]24OO3` [artesunate, reference compound], in data set [1] (NF54, controls of the antimalarial assay, read-out: PfNF54 IC50), the IC50 amounted to 4 ± 1.7 ng/mL.

These data come from paper PMC8360061, “Search for the Active Ingredients from a 2‐Aminothiazole DMSO Stock Solution with Antimalarial Activity” (Chemmedchem, 2021).
